Drawing on PMC7902475 (Traffic (Copenhagen, Denmark), 2020), this text covers Kd for 1 molecule.

Assay [1] deals with T1, ALFY-FYVE (Homo sapiens, UniProt Q8IZQ1, E3471K).
T1 sequence (Q8IZQ1 3428-3518 E3471K): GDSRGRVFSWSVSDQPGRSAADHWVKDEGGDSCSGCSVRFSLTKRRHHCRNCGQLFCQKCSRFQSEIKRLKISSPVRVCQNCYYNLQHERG
Kind of assay: 1H-15N HSQC NMR titration, chemical shift perturbation fit. Type of assay: binding.

Assay [2] concerns the target T2, ALFY-FYVE (Homo sapiens, UniProt Q8IZQ1).
T2 sequence (Q8IZQ1 3428-3518): T1 sequence (Q8IZQ1 3428-3518 E3471K) with K44E
Described as above. Type of assay: binding.

Changes are numbered by the printed parent chain.

For `O=P(O)(O)O[C@@H]1[C@H](O)[C@H](OP(=O)(O)O)[C@@H](O)[C@H](O)[C@H]1O` [Ins(1,3)P2], the dissociation constant (Kd) (in general, the constant that tells how readily two partners part at equilibrium) in assay [1] is 82.8 to 270 µM; in assay [2], 50.5 to 184 µM.
